Test results: article PMC7470127, “Design, synthesis, and evaluation of 1, 4-benzodioxan-substituted chalcones as selective and reversible inhibitors of human monoamine oxidase B” (Journal of Enzyme Inhibition and Medicinal Chemistry, 2020)
Where two headings read alike, the source gives them in different places.

Tests used:
[1] = biological target: T1, hMAO-B (Homo sapiens, UniProt P27338); experiment: Enzyme kinetic study (Lineweaver–Burk plots); type: biochemical; settings: benzylamine 1, 2, 4 and 8 mM
T1 sequence (P27338 1-520): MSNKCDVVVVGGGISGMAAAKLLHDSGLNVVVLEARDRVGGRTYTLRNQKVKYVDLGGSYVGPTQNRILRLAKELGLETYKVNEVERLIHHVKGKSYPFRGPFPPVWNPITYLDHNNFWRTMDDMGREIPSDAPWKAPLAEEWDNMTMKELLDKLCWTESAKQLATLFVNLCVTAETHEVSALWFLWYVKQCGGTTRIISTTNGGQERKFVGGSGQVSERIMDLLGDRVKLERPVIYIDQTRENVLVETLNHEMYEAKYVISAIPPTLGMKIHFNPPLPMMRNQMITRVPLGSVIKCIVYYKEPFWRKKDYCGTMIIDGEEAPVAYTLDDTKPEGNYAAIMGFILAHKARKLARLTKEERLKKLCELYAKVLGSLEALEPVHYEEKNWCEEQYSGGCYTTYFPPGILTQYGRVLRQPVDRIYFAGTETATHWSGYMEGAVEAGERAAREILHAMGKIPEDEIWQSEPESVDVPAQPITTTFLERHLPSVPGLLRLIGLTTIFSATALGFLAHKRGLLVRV
Procedure: To evaluate the mode of MAO-B inhibition, the representative compound was evaluated in substrate-dependent kinetic experiments performed as previously described. Sets of Lineweaver–Burk plots were generated. The reciprocal MAO-B activity was plotted against the reciprocal substrate concentration. […] The enzymatic reactions and measurements were performed using human MAO-B assay conditions as described above for the determination of IC50 values.

[2] = tested on: BV2 microglia cells; experiment: MTT assay, cytotoxicity; type: cell-based; settings: 5 and 25 µM for 24 h
Procedure: The 3–(4, 5-dimethylthiazol-2-yl)-2,5-diphenyltetrazolium (MTT) assay was performed as previously described. BV2 Cells were plated at 5000 cells per well and allowed to grow at 37 °C overnight. Then the cells were treated with various concentrations of the tested compounds for 24 h at 37 °C in a humidified atmosphere with 5% CO2, 0.5% DMSO acted as the vehicle control. The cell culture medium was then removed, followed by the addition of fresh cell culture medium containing 5.0 g/L MTT (20 µL/per well) and incubation at 37 °C in a humidified, 5% CO2 atmosphere for 4 h. After this incubation period, the cell culture medium was removed and the formed formazan crystals dissolved in 100% DMSO. The absorbance was measured at 570 nm in a multi-well plate reader. The results are expressed as % relative cell viability compared to DMSO vehicle control.

[3] = biological target: T1, hMAO-B; experiment: hMAO inhibition assay (Amplex Red fluorescence), hMAO-B, benzylamine substrate; type: biochemical; settings: for Selectivity Index (SI): SI = IC50 (hMAO-A)/IC50 (hMAO-B); for fold higher inhibitory potency than 4: from IC50, versus compound 4; for inhibition at 1 µM: tested concentration 1 µM
Procedure: The hMAO inhibition assay was performed as previously described. […] The test compounds were dissolved in DMSO as stock solutions (10 mM) and diluted with sodium phosphate buffer (50 mM, pH 7.4) to the corresponding concentrations. […] The specific fluorescence emission was calculated after subtraction of the background activity. The background activity was determined from wells containing all components except the hMAO isoforms, which were replaced by a sodium phosphate buffer solution. The percentage inhibition was calculated by the following expression: (1 – IFi/IFc) × 100, in which IFi and IFc are the fluorescence intensities obtained for hMAO in the presence and absence of inhibitors after subtracting the respective background.

[4] = biological target: T1, hMAO-B; experiment: Reversibility study: time-dependent inhibition of hMAO-B; type: biochemical; settings: for IC80: compounds used at the concentration of their IC80; for time after which the residual activity of hMAO-B began to increase: inhibitor at IC80; for reversibility of hMAO-B inhibition: inhibitor at IC80, activity followed for 120 min
Procedure: Control experiments without inhibitors were run simultaneously. The enzymatic activity was determined as described above. The percentage of enzyme activity was plotted against the incubation time to determine time-dependent enzyme inhibition.

[5] = biological target: T2, hMAO-A (Homo sapiens, UniProt P21397); experiment: hMAO inhibition assay (Amplex Red fluorescence), hMAO-A, p-tyramine substrate; type: biochemical; settings: recombinant hMAO-A
T2 sequence (P21397 1-527): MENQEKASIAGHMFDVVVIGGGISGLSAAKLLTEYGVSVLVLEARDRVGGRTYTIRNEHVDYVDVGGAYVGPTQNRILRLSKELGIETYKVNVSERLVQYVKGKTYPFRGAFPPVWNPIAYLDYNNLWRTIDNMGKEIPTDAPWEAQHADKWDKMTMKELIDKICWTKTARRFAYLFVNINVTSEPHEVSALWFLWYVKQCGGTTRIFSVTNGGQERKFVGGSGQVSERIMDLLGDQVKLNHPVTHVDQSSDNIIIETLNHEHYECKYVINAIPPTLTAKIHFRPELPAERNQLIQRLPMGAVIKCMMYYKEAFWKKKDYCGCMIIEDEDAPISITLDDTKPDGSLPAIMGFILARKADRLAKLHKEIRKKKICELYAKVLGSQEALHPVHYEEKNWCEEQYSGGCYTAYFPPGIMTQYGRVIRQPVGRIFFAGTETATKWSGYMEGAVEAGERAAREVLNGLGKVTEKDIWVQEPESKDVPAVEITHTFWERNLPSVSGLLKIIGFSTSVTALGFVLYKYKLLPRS
Procedure: The hMAO inhibition assay was performed as previously described. Adequate amounts of recombinant hMAO-A/B were acquired and adjusted to 12.5 µg/mL or 75 µg/mL for hMAO-A or hMAO-B, respectively, with sodium phosphate buffer (50 mM, pH 7.4). The test compounds were dissolved in DMSO as stock solutions (10 mM) and diluted with sodium phosphate buffer (50 mM, pH 7.4) to the corresponding concentrations. Then the test compounds (20 µL) and hMAO (80 µL) were incubated for 15 min at 37 °C in a flat, black-bottomed 96-well microtest plate in the dark. The reaction was initiated by adding Amplex Red reagent (200 µM, final concentration), horseradish peroxidase (2 U/mL, final concentration), and 2 mM p-tyramine for hMAO-A or 2 mM benzylamine (final concetration) for hMAO-B and incubated at 37 °C for 20 min. Activity was quantified in a multi detection microplate fluorescence reader (SpectraMax M5, Molecular Devices, USA) based on the fluorescence generated (excitation, 545 nm; emission, 590 nm). The specific fluorescence emission was calculated after subtraction of the background activity. The background activity was determined from wells containing all components except the hMAO isoforms, which were replaced by a sodium phosphate buffer solution. The percentage inhibition was calculated by the following expression: (1 – IFi/IFc) × 100, in which IFi and IFc are the fluorescence intensities obtained for hMAO in the presence and absence of inhibitors after subtracting the respective background. […]

[6] = biological target: T1, hMAO-B; settings: cited from earlier work
[7] = recombinant hMAO-B, read-out: hMAO-B IC50

SMILES	Selectivity Index (SI) [3]	IC50 [3, 7] [nM]	inhibition at 1 µM [3] [%]	melting point [°C]	IC80 [4] [nM]	time after which the residual activity of hMAO-B began to increase [4] [min]	reversibility of hMAO-B inhibition [4]	IC50 [5] [nM]	other results
O=C(/C=C/c1ccc2c(c1)OCCO2)c1cccc(Br)c1 [Compound 16, (E)-1-(3-bromophenyl)-3-(2,3-dihydrobenzo[b][1,4]dioxin-6-yl)prop-2-en-1-one]	>727	55 ± 2	93.3	119.3 to 120.4	280	20	reversible	> 40000	mode of hMAO-B inhibition [1]: competitive; Cell viability of BV2 cells [2]: no considerable decrease in cellular viability; fold higher inhibitory potency than 4 [3]: 1.7–4 fold
Cc1ccc(C(=O)/C=C/c2ccc(F)c(Br)c2)s1 [Compound 4h]									inhibition mode of hMAO-B ([6]; ref [13]): reversible inhibition
COc1ccc(C(=O)/C=C/c2ccc(Cl)cc2)c(O)c1 [Compound 5i]									inhibition mode of hMAO-B ([6]; ref [12]): irreversible inhibition
C[C@H](NCc1ccc(OCc2cccc(F)c2)cc1)C(N)=O [safinamide, reference compound]					60	15	reversible		
Brc1cccc(COc2ccc3c(c2)OCCO3)c1 [Compound 7c]									inhibition mode of hMAO-B ([6]; ref [17]): reversible inhibition
O=C(/C=C/c1ccc2c(c1)OCCO2)c1cccc(Cl)c1 [Compound 17, (E)-1-(3-chlorophenyl)-3-(2,3-dihydrobenzo[b][1,4]dioxin-6-yl)prop-2-en-1-one]	>702	57 ± 4	93.4	125.5 to 127	280	20	reversible	> 40000	mode of hMAO-B inhibition [1]: competitive; Cell viability of BV2 cells [2]: no considerable decrease in cellular viability; fold higher inhibitory potency than 4 [3]: 1.7–4 fold
O=C(/C=C/c1ccc2c(c1)OCCO2)c1ccc(F)cc1 [Compound 20, (E)-3-(2,3-dihydrobenzo[b][1,4]dioxin-6-yl)-1-(4-fluorophenyl)prop-2-en-1-one]	>588	68 ± 7	87.5	135.5 to 136.5				> 40000	
O=C(/C=C/c1ccc2c(c1)OCCO2)c1ccccc1Cl [Compound 13, (E)-1-(2-chlorophenyl)-3-(2,3-dihydrobenzo[b][1,4]dioxin-6-yl)prop-2-en-1-one]	>741	54 ± 6	92.4	67.5 to 69.4				> 40000	fold higher inhibitory potency than 4 [3]: 1.8–4.1 fold
C#CCN[C@@H]1CCc2ccccc21 [rasagiline, reference compound]					200				
O=C(/C=C/c1ccc2c(c1)OCCO2)c1ccc(Br)cc1 [Compound 19, (E)-1–(4-bromophenyl)-3–(2,3-dihydrobenzo[b][1,4]dioxin-6-yl)prop-2-en-1-one]			68.1	136.7 to 138.2				> 40000	
O=C(/C=C/c1ccc2c(c1)OCCO2)c1ccc(F)c(Br)c1 [Compound 22, (E)-1-(3-bromo-4-fluorophenyl)-3-(2,3-dihydrobenzo[b][1,4]dioxin-6-yl)prop-2-en-1-one]			95.6		190	20	reversible	> 40000	mode of hMAO-B inhibition [1]: competitive; Cell viability of BV2 cells [2]: no considerable decrease in cellular viability; IC50 [3]: 26 ± 1 nM
